In brackets after ≈: the same amount, converted by molar mass.
Experiments:
Assay type in all cases: cell-based
[1] = tested on: Clostridium acidiurici A9560; assay: MIC, serial two-fold dilution method (anaerobic); conditions: Gottschalkia acidurici; Clostridium acidiurici A9560; GAM agar medium; inoculum 10^7-10^8; read-out: minimum inhibitory concentration (MIC)
[2] = tested on: Clostridium chauvoei A9561; assay: MIC, serial two-fold dilution method (anaerobic); conditions: Clostridium chauvoei A9561; GAM agar medium; inoculum 10^7-10^8; read-out: minimum inhibitory concentration (MIC)
Protocol: (§1) The minimum inhibitory concentration (MIC) of Bu-2517 was determined for a variety of aerobic and anaerobic bacteria by the serial two-fold dilution method using a multi-inoculating apparatus. Mueller-Hinton agar was generally used for aerobic bacteria, GC medium (Eiken) for fastidious aerobic organisms such as streptococci, Neisseria and Haemophilus species, and GAM agar medium (Nissui) for anaerobic bacteria. The inoculum size was adjusted to 10^6 CFU/ml for streptococci, Neisseria and Haemophilus species, 10^4 for other aerobic bacteria and 10^7 -10^8 for all anaerobic organisms. Amphomycin, ampicillin, chloramphenicol, clindamycin, erthromycin, kanamycin and vancomycin were used as reference antibiotics.

[3] = tested on: Clostridium difficile A21675; assay: MIC, serial two-fold dilution method (anaerobic); conditions: Clostridioides difficile; Clostridium difficile A21675; GAM agar medium; inoculum 10^7-10^8; read-out: minimum inhibitory concentration (MIC)
Protocol: as §1

[4] = tested on: Clostridium difficile A21972; assay: MIC, serial two-fold dilution method (anaerobic); conditions: Clostridioides difficile; Clostridium difficile A21972; GAM agar medium; inoculum 10^7-10^8; read-out: minimum inhibitory concentration (MIC)
Protocol: as §1

[5] = tested on: Clostridium septicum A21869; assay: MIC, serial two-fold dilution method (anaerobic); conditions: Clostridium septicum A21869; GAM agar medium; inoculum 10^7-10^8; read-out: minimum inhibitory concentration (MIC)
Protocol: as §1

[6] = tested on: Clostridium cylindrosporum A9562; assay: MIC, serial two-fold dilution method (anaerobic); conditions: Clostridium cylindrosporum A9562; GAM agar medium; inoculum 10^7-10^8; read-out: minimum inhibitory concentration (MIC)
[7] = tested on: Clostridium perfringens A9635; assay: microbe, parasite or virus in culture; conditions: Clostridium perfringens, A9635, read-out: minimum inhibitory concentration (MIC)
[8] = tested on: Clostridium perfringens A22787; assay: microbe, parasite or virus in culture; conditions: Clostridium perfringens, A22787, read-out: minimum inhibitory concentration (MIC)
[9] = tested on: Clostridium ramosum A21970; assay: MIC, serial two-fold dilution method (anaerobic); conditions: Thomasclavelia ramosa; Clostridium ramosum A21970; GAM agar medium; inoculum 10^7-10^8; read-out: minimum inhibitory concentration (MIC)
[10] = tested on: Propionibacterium acnes A21933; assay: MIC, serial two-fold dilution method (anaerobic); conditions: Cutibacterium acnes; Propionibacterium acnes A21933; GAM agar medium; inoculum 10^7-10^8; read-out: minimum inhibitory concentration (MIC)
[11] = tested on: Propionibacterium acnes A21953; assay: MIC, serial two-fold dilution method (anaerobic); conditions: Cutibacterium acnes; Propionibacterium acnes A21953; GAM agar medium; inoculum 10^7-10^8; read-out: minimum inhibitory concentration (MIC)
[12] = tested on: Propionibacterium acnes A22650; assay: MIC, serial two-fold dilution method (anaerobic); conditions: Cutibacterium acnes; Propionibacterium acnes A22650; GAM agar medium; inoculum 10^7-10^8; read-out: minimum inhibitory concentration (MIC)
[13] = tested on: Peptostreptococcus anaerobius A21905; assay: MIC, serial two-fold dilution method (anaerobic); conditions: Peptostreptococcus anaerobius A21905; GAM agar medium; inoculum 10^7-10^8; read-out: minimum inhibitory concentration (MIC)
[14] = tested on: Peptostreptococcus intermedius A21881; assay: MIC, serial two-fold dilution method (anaerobic); conditions: Peptostreptococcus intermedius A21881; GAM agar medium; inoculum 10^7-10^8; read-out: minimum inhibitory concentration (MIC)
[15] = tested on: Peptococcus magnas A21676; assay: MIC, serial two-fold dilution method (anaerobic); conditions: Peptococcus magnas A21676; GAM agar medium; inoculum 10^7-10^8; read-out: minimum inhibitory concentration (MIC)
[16] = tested on: Bacteroides fragilis CUH-9; assay: MIC, serial two-fold dilution method (anaerobic); conditions: CUH9; Bacteroides fragilis CUH-9; GAM agar medium; inoculum 10^7-10^8; read-out: minimum inhibitory concentration (MIC)
[17] = tested on: Bacteroides fragilis CUH-24; assay: MIC, serial two-fold dilution method (anaerobic); conditions: CUH24; Bacteroides fragilis CUH-24; GAM agar medium; inoculum 10^7-10^8; read-out: minimum inhibitory concentration (MIC)
[18] = tested on: Bacteroides fragilis A20926; assay: MIC, serial two-fold dilution method (anaerobic); conditions: Bacteroides fragilis A20926; GAM agar medium; inoculum 10^7-10^8; read-out: minimum inhibitory concentration (MIC)
[19] = tested on: Bacteroides fragilis A20928-1; assay: MIC, serial two-fold dilution method (anaerobic); conditions: A209281; Bacteroides fragilis A20928-1; GAM agar medium; inoculum 10^7-10^8; read-out: minimum inhibitory concentration (MIC)
[20] = tested on: Bacteroides fragilis A20929; assay: MIC, serial two-fold dilution method (anaerobic); conditions: Bacteroides fragilis A20929; GAM agar medium; inoculum 10^7-10^8; read-out: minimum inhibitory concentration (MIC)
[21] = tested on: Bacteroides fragilis A21900; assay: MIC, serial two-fold dilution method (anaerobic); conditions: Bacteroides fragilis A21900; GAM agar medium; inoculum 10^7-10^8; read-out: minimum inhibitory concentration (MIC)
[22] = tested on: Bacteroides fragilis A22053; assay: MIC, serial two-fold dilution method (anaerobic); conditions: Bacteroides fragilis A22053; GAM agar medium; inoculum 10^7-10^8; read-out: minimum inhibitory concentration (MIC)
[23] = tested on: Bacteroides fragilis A22533; assay: MIC, serial two-fold dilution method (anaerobic); conditions: Bacteroides fragilis A22533; GAM agar medium; inoculum 10^7-10^8; read-out: minimum inhibitory concentration (MIC)
[24] = tested on: Bacteroides fragilis A22695; assay: MIC, serial two-fold dilution method (anaerobic); conditions: Bacteroides fragilis A22695; GAM agar medium; inoculum 10^7-10^8; read-out: minimum inhibitory concentration (MIC)
[25] = tested on: Bacteroides ovatus A22400; assay: MIC, serial two-fold dilution method (anaerobic); conditions: Bacteroides ovatus A22400; GAM agar medium; inoculum 10^7-10^8; read-out: minimum inhibitory concentration (MIC)
[26] = tested on: Fusobacterium necrophorum A20013; assay: MIC, serial two-fold dilution method (anaerobic); conditions: Fusobacterium necrophorum A20013; GAM agar medium; inoculum 10^7-10^8; read-out: minimum inhibitory concentration (MIC)
[27] = tested on: Fusobacterium nucleatum A21906; assay: MIC, serial two-fold dilution method (anaerobic); conditions: Fusobacterium nucleatum A21906; GAM agar medium; inoculum 10^7-10^8; read-out: minimum inhibitory concentration (MIC)
[28] = tested on: Fusobacterium varium ATCC 8501; assay: MIC, serial two-fold dilution method (anaerobic); conditions: ATCC8501; Fusobacterium varium ATCC 8501; GAM agar medium; inoculum 10^7-10^8; read-out: minimum inhibitory concentration (MIC)
[29] = tested on: Veillonella alcalescens A21914-1; assay: MIC, serial two-fold dilution method (anaerobic); conditions: Veillonella parvula, A219141; Veillonella alcalescens A21914-1; GAM agar medium; inoculum 10^7-10^8; read-out: minimum inhibitory concentration (MIC)
[30] = tested on: Veillonella parvula A20010; assay: MIC, serial two-fold dilution method (anaerobic); conditions: Veillonella parvula A20010; GAM agar medium; inoculum 10^7-10^8; read-out: minimum inhibitory concentration (MIC)

Compound: CCC[C@@H]1C[C@@H](C(=O)N[C@@H]([C@H]2O[C@H](SC)[C@H](O)[C@@H](O)[C@H]2O)[C@H](C)Cl)N(C)C1 [Clindamycin]
- MIC [1]: 0.8 µg/mL (≈ 1.88 µM)
- MIC [2]: 0.025 µg/mL (≈ 0.0588 µM)
- MIC [3]: 100 µg/mL (≈ 235 µM)
- MIC [4]: 0.025 µg/mL (≈ 0.0588 µM)
- MIC [5]: 0.8 µg/mL (≈ 1.88 µM)
- MIC [6]: 0.8 µg/mL (≈ 1.88 µM)
- MIC [7]: 0.025 µg/mL (≈ 0.0588 µM)
- MIC [8]: 50 µg/mL (≈ 118 µM)
- MIC [9]: 0.025 µg/mL (≈ 0.0588 µM)
- MIC [10]: 0.8 µg/mL (≈ 1.88 µM)
- MIC [11]: 0.8 µg/mL (≈ 1.88 µM)
- MIC [12]: 0.1 µg/mL (≈ 0.235 µM)
- MIC [13]: 0.2 µg/mL (≈ 0.471 µM)
- MIC [14]: 0.2 µg/mL (≈ 0.471 µM)
- MIC [15]: 0.05 µg/mL (≈ 0.118 µM)
- MIC [16]: 50 µg/mL (≈ 118 µM)
- MIC [17]: > 100 µg/mL
- MIC [18]: 0.025 µg/mL (≈ 0.0588 µM)
- MIC [19]: 0.025 µg/mL (≈ 0.0588 µM)
- MIC [20]: 3.1 µg/mL (≈ 7.29 µM)
- MIC [21]: 1.6 µg/mL (≈ 3.76 µM)
- MIC [22]: 0.2 µg/mL (≈ 0.471 µM)
- MIC [23]: 0.025 µg/mL (≈ 0.0588 µM)
- MIC [24]: 0.1 µg/mL (≈ 0.235 µM)
- MIC [25]: 6.3 µg/mL (≈ 14.8 µM)
- MIC [26]: 12.5 µg/mL (≈ 29.4 µM)
- MIC [27]: 1.6 µg/mL (≈ 3.76 µM)
- MIC [28]: 1.6 µg/mL (≈ 3.76 µM)
- MIC [29]: 0.013 µg/mL (≈ 0.0306 µM)
- MIC [30]: 0.4 µg/mL (≈ 0.941 µM)

From US4409210A, “Antibiotic compound” (priority 1982, dated 1983)
